According to ChEMBL document CHEMBL1201862, “PubChem BioAssay data set” (2004):
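Test compounds were applied to cells in 96-well plates for 48 hours at 5 doses. Here, GI50 denotes the concentration required for 50% inhibition of growth.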 Calls of active or inactive are those of the source. Rule as the data show it: active = GI50 up to about 1.1 µM and inactive = higher.

Key:
Test in all cases: inhibition of tumour cell growth, NCI panel, 48 h
[1] = system: OVCAR-5
[2] = system: IGROV-1
[3] = system: BT-549
[4] = system: MOLT-4
[5] = system: ACHN
[6] = system: UACC-62
[7] = system: CAKI-1
[8] = system: MDA-N
[9] = system: PC-3
[10] = system: NCI-H460
[11] = system: NCI-H226
[12] = system: MDA-MB-231
[13] = system: SF-268
[14] = system: Hs-578T
[15] = system: SNB-75
[16] = system: DMS-273
[17] = system: SNB-78
[18] = system: XF498
[19] = system: SK-OV-3
[20] = system: 786-0

Row | Compound | GI50 [1] | GI50 [2] | GI50 [3] | GI50 [4] | GI50 [5] | GI50 [6] | GI50 [7] | GI50 [8] | GI50 [9] | GI50 [10] | GI50 [11] | GI50 [12] | GI50 [13] | GI50 [14] | GI50 [15] | GI50 [16] | GI50 [17] | GI50 [18] | GI50 [19] | GI50 [20]
1 | Cc1cccc(C(O)c2cccnc2)c1O (stereo not drawn) | 39.2 µM (inactive) | > 100 µM (inactive) | > 100 µM (inactive) | > 100 µM (inactive) | > 100 µM (inactive) | 35.7 µM (inactive) | > 100 µM (inactive) | > 100 µM (inactive) | > 100 µM (inactive) | > 100 µM (inactive) | > 100 µM (inactive) | > 100 µM (inactive) | > 100 µM (inactive) | > 100 µM (inactive) | > 100 µM (inactive) | – | – | – | – | –
2 | CC(C)=CCC(OC(=O)C=C(C)C)c1cc(O)c2c(c1O)C(=O)C=CC2=O (stereo not drawn) | 3.89 µM (inactive) | 2.04 µM (inactive) | – | – | – | 0.783 µM (active) | 0.64 µM (active) | – | – | 2.75 µM (inactive) | 2.97 µM (inactive) | – | 1.39 µM (inactive) | – | 4.98 µM (inactive) | 1.98 µM (inactive) | 2.07 µM (inactive) | 0.809 µM (active) | 5.45 µM (inactive) | –
3 | O=C(c1ccccc1)C1C(c2ccccc2)N1S(=O)(=O)c1ccccc1 (stereo not drawn) | > 100 µM (inactive) | > 100 µM (inactive) | > 100 µM (inactive) | > 100 µM (inactive) | – | > 100 µM (inactive) | > 100 µM (inactive) | > 100 µM (inactive) | > 100 µM (inactive) | – | > 100 µM (inactive) | > 100 µM (inactive) | > 100 µM (inactive) | > 100 µM (inactive) | > 100 µM (inactive) | – | – | – | > 100 µM (inactive) | –
4 | Nc1nnc2ccc(Cl)cc2[n+]1[O-] | > 100 µM (inactive) | 31.8 µM (inactive) | > 100 µM (inactive) | 35.1 µM (inactive) | 62.7 µM (inactive) | 49 µM (inactive) | > 100 µM (inactive) | 37.6 µM (inactive) | > 100 µM (inactive) | – | > 100 µM (inactive) | 37.9 µM (inactive) | 38 µM (inactive) | 41.7 µM (inactive) | > 100 µM (inactive) | – | – | – | 28.6 µM (inactive) | –
5 | Clc1nc2c(N3CCCC3)nc(N3CCNCC3)nc2[nH]1 | 19.3 µM (inactive) | 17.9 µM (inactive) | 29.4 µM (inactive) | 20.9 µM (inactive) | 19.9 µM (inactive) | 17.4 µM (inactive) | 39 µM (inactive) | 17.6 µM (inactive) | 17.8 µM (inactive) | 17.6 µM (inactive) | > 100 µM (inactive) | 16.4 µM (inactive) | 19.2 µM (inactive) | > 100 µM (inactive) | 20.1 µM (inactive) | – | – | – | 18.2 µM (inactive) | 17.8 µM (inactive)
6 | O=c1c(-c2ccccc2)c(SCCN2CCCCCC2)n(-c2ccccc2)c(=S)n1-c1ccccc1 | 21.1 µM (inactive) | 45.8 µM (inactive) | > 100 µM (inactive) | 13.4 µM (inactive) | 54.6 µM (inactive) | 48.9 µM (inactive) | 22.9 µM (inactive) | – | – | 46.8 µM (inactive) | 94.8 µM (inactive) | – | – | 39.8 µM (inactive) | > 100 µM (inactive) | – | – | – | > 100 µM (inactive) | –
7 | COc1cc(/N=N\c2ccc(OC)c(S(=O)(=O)O)c2)c(C)cc1/N=N\c1ccc(/C=C/c2ccc(/N=[N+](/[O-])c3ccc(/C=C/c4ccc(/N=N/c5cc(C)c(/N=N\c6ccc(OC)c(S(=O)(=O)O)c6)cc5OC)cc4S(=O)(=O)O)c(S(=O)(=O)O)c3)cc2S(=O)(=O)O)c(S(=O)(=O)O)c1 | > 100 µM (inactive) | > 100 µM (inactive) | – | > 100 µM (inactive) | – | > 100 µM (inactive) | – | – | – | > 100 µM (inactive) | > 52.1 µM (inactive) | – | > 100 µM (inactive) | – | 58.2 µM (inactive) | > 68.1 µM (inactive) | > 100 µM (inactive) | > 100 µM (inactive) | > 100 µM (inactive) | –
8 | Cc1ccc(C(=O)Nc2ccc(S(=O)(=O)O)c3cc(S(=O)(=O)O)cc(S(=O)(=O)O)c23)cc1N | > 100 µM (inactive) | > 100 µM (inactive) | > 100 µM (inactive) | > 100 µM (inactive) | > 100 µM (inactive) | > 100 µM (inactive) | > 100 µM (inactive) | > 100 µM (inactive) | > 100 µM (inactive) | > 100 µM (inactive) | > 100 µM (inactive) | > 100 µM (inactive) | > 100 µM (inactive) | > 100 µM (inactive) | > 100 µM (inactive) | – | – | – | 91.6 µM (inactive) | > 100 µM (inactive)
9 | Cc1ccc(NC(=O)S(N)(c2ccc(C)cc2)[N+](=O)[O-])cc1 (stereo not drawn) | > 100 µM (inactive) | > 100 µM (inactive) | > 100 µM (inactive) | 84.7 µM (inactive) | – | > 100 µM (inactive) | > 100 µM (inactive) | > 100 µM (inactive) | > 100 µM (inactive) | > 100 µM (inactive) | > 100 µM (inactive) | > 100 µM (inactive) | – | > 100 µM (inactive) | > 100 µM (inactive) | – | – | – | > 100 µM (inactive) | –
